In article PMC6405842, “Identification of a novel scaffold for a small molecule GPR139 receptor agonist” (Scientific Reports, 2019):
Changes are numbered by the printed parent chain.

Columns and labels:
Type in all cases: cell-based
GPR139 [1] = target: T1, GPR139 (Homo sapiens, UniProt Q6DWJ6); assay: Phospho-ERK1/2 HTRF assay in CHO-GPR139 cells; details: ERK phosphorylation
T1 construct: host or cells: CHO-k1
T1 sequence (Q6DWJ6 1-353): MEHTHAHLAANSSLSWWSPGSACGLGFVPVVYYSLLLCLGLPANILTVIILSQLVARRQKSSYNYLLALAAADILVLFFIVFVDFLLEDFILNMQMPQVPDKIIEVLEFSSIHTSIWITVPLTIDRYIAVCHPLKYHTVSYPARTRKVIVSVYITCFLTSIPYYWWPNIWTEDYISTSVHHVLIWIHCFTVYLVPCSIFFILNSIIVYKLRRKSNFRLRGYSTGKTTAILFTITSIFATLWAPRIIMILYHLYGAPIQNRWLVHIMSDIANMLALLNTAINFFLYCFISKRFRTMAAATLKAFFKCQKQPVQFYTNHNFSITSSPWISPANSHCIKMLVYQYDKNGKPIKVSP
Method: All compounds were tested on a CHO-k1 cell line stably expressing GPR139 (CHO-GPR139)[11] kindly provided by H. Lundbeck A/S, Denmark. GPR139-specific responses were assessed using a CHO-k1 cell line stably expressing the muscarinic acetylcholine receptor M1 (CHO-M1) (The Missouri S&T cDNA Resource Center, # CEM100TN00).
Phospho-ERK measurements were made using the Advanced Phospho-ERK1/2 (Thr202/Tyr204) HTRF kit by Cisbio (Codolet, France). Approximately 24 hours prior to the experiment, CHO-GPR139 cells were plated at 50,000 cells/well onto a 96-well plate and cultured as detailed above. Approximately 6 hours later, the media was aspirated, replaced with 50 μL serum-free media, and the cells were allowed to serum starve overnight. The day of the experiment, serial dilutions of the test compounds and controls were made in serum-free media at 2x final concentration. 50 μL of test compounds were added directly to the appropriate wells for 5 minute stimulation at 37 °C. At this point, the media and compounds were rapidly aspirated, lysis/blocking buffer was added, and cells were lysed on a shaker for 30 minutes at room temperature.
(§1) The Ca^2+ and ERK responses were normalized as indicated and the concentration response curves were fitted by Prism 6 software (GraphPad) using nonlinear regression in a sigmoidal model with variable slope, as has been previously described.

GPR139 N271A^7×38 = target: T2, GPR139 N271A^7×38 (Homo sapiens, UniProt Q6DWJ6, N271A); assay: Ca2+ mobilization on GPR139 mutant N271A
T2 construct: myc (N); expressed in transfected cells
T2 sequence (Q6DWJ6 1-353 N271A): T1 sequence (Q6DWJ6 1-353) with N271A
Method: Figure 4 Ca^2+ mobilization concentration-response curves of AC4 on GPR139 wild-type (WT) and mutants. Data is shown from a representative experiment (mean ± S.D.) out of three independent experiments performed in duplicate. Data is normalized to the Ca^2+ response of buffer (0%) and 100 μM AC4 (100%) on myc-GPR139(WT). Residue numbering in superscript is according to GPCRdb numbering system.
The mutational studies were performed as previously described.

GPR139 [2] = target: T1, GPR139; assay: Fluo-4 calcium mobilization assay, agonist mode, concentration-response curves in CHO-GPR139 cells
Method: All compounds were tested on a CHO-k1 cell line stably expressing GPR139 (CHO-GPR139)[11] kindly provided by H. Lundbeck A/S, Denmark. GPR139-specific responses were assessed using a CHO-k1 cell line stably expressing the muscarinic acetylcholine receptor M1 (CHO-M1) (The Missouri S&T cDNA Resource Center, # CEM100TN00). The CHO-GPR139 cells were grown in Dulbecco’s modified Eagle’s medium (DMEM) F12-Kaighn’s (ThermoFisher Scientific # 21127) supplemented with 10% dialyzed fetal bovine serum (United States origin; ThermoFisher Scientific # 26400), 1% GlutaMAX-I (100X) (ThermoFisher Scientific # 35050061), and 100 units/mL penicillin and 100 µg/mL streptomycin (ThermoFisher Scientific # 15140122) and 1 mg/mL geneticin (ThermoFisher Scientific # 11811031). The CHO-M1 cells were grown in Ham’s F12 (ThermoFisher Scientific # 21765) supplemented with 10% fetal bovine serum (South American origin; ThermoFisher Scientific # 10270) + 100 units/mL penicillin and streptomycin and 0.25 mg/mL geneticin.
The Fluo-4 Ca^2+-assay was performed as described previously, with minor modifications. After 1 hour incubation with the Fluo-4 dye, the CHO-GPR139 cells were washed with 100 μL HEPES buffer (Hank’s Balanced Salt Solution (HBBS, ThermoFisher Scientific # 14175053) supplemented with 20 mM HEPES, 1 mM MgCl2, 1 mM CaCl2, pH = 7.4) and the compound library was then added in concentrations between 25–63 μM dissolved in HEPES buffer (supplemented with 2.5 mM probenecid and 1% DMSO) and pre-incubated for 10 min at 37 °C. 33 μL of 3.2 μM 1a were added automatically after baseline measurements. […] This set-up allowed us to identify both antagonists and agonists (Fig. 2).
Each compound, for which a concentration response curve was made, was tested at least three times in duplicate measurements. After the incubation with the Fluo-4 dye and a wash, 100 μL HEPES buffer (supplemented with 2.5 mM probenecid) was added to each well and incubated for 10 minutes at 37 °C before recording. 33 μL of compounds (4× concentrated) were added automatically after baseline measurements.
as §1

EC50 (GPR139 [1]; CHO-GPR139 cells, read-out: pEC50 ± SEM (converted)): 0.178 µM
Emax (GPR139 [1]; expressed relative to FBS positive control): 77.2 ± 6.53%
Ca2+ response (GPR139 N271A^7×38): no measurable Ca^2+ response
Emax (GPR139 [2]; CHO-GPR139 cells, normalized to buffer (0%) and 8 μM 1a (100%)): 116 ± 3%
EC50 (GPR139 [2]; CHO-GPR139 cells, read-out: pEC50 ± S.E.M. (converted)): 0.219 µM
Emax (GPR139 [2]; Table S1, normalized to compound 1a): 115 ± 3%
SMILES: O=C(O)C1CC=CCC1c1nnc(CSc2ccc(Cl)cc2)o1 (stereo not drawn) [AC4]
